Source: article PMC6321509, “Search of Allosteric Inhibitors and Associated Proteins of an AKT-like Kinase from Trypanosoma cruzi” (International Journal of Molecular Sciences, 2018)
Like-named read-outs stand apart in the source and are kept apart here.

Columns and labels:
Format in all cases: cell-based
in vitro = conditions: MTT, read-out: LC50 lethal concentration on human monocyte-derived macrophages (hMDMD)
Procedure: The cytotoxicity of the compounds was evaluated according to the ability to kill macrophages derived from human monocytes (hMDM) by the […] method, following the procedures performed by Pastrana Restrepo et al.. The hMDM were obtained from 50 mL of desfribrinated whole blood from healthy donors. These samples were mixed in a 1:1 ratio with Dulbecco PBS free of calcium and magnesium (DPBS). The mixture was centrifuged in a Ficoll Hypaque 1077 density gradient in a 1:3 ratio (blood–Ficoll) for separation of mononuclear cells, centrifuging at 2000 rpm for 20 min at 37 °C. The mononuclear cell layer was separated and these cells were washed twice with a solution of DPBS centrifuged at 13000 rpm for 10 min. After the last wash, the cells were resuspended in an RPMI medium with 10% autologous serum at a concentration of 0.3 × 10^6 cells/mL. Then, 1 mL of cells was placed in each well of 24-well culture dishes and incubated at 37 °C, 5% CO2 for 72 h to allow the differentiation of monocytes to macrophages. For the MTT test, the hMDM were adjusted to a concentration of 0.5 × 10^6 cells/mL in the RPMI medium supplemented with 10% FBS, and the concentration of the compound in the culture was adjusted (four serial dilutions starting at 200 μM). Amphotericin B and Doxorubicin were used as controls for the determination of cytotoxicity. Each experiment was performed in triplicate.
In this case, the in vitro cytotoxicity was defined by the decrease in the cell viability and growth, obtained from the OD for each experimental condition, using the following formula: (%) viability inhibition = […], where the OD of untreated cells corresponds to 100% of the viability. Growth inhibition percentage data obtained for each experimental condition were used to calculate the half lethal concentration (LC50) by the Probit analysis.
The cytotoxicity of each compound was rated according to its LC50. […]

T. cruzi amastigote = assay: In vitro antitrypanosomal activity, amastigotes in U937 macrophages (β-galactosidase Tulahuen strain); conditions: Trypanosoma cruzi, U-937; infected U937 macrophages, 72 h; mean ± SD; read-out: IC50 inhibitory concentration of T. cruzi amastigote
Procedure: A human promonocitic U937 line was cultivated in RPMI-1640 medium with 10% fetal bovine serum (FBS) at a concentration of 0.25 × 10^6 cells/mL; the cells were transformed into macrophages by being incubated with phorbol 12-myristate 13-acetate (PMA) at 0.1 µg/mL. To adhere the cells, 0.1 mL of cells was added in 96-well dishes. Adherence was carried out for 72 h, and then epimastigote were added in the stationary phase of the Tulahuen strain producing β-galactosidase, at 5 parasite/cellU937 concentrations for 24 h at 37 °C with 5% CO2. To calculate the IC50 (Table 2), different concentrations of the compounds to evaluate and Benznidazole were added at an initial concentration of 20 µg/mL and 6 serial dilutions were made as a control of the effectiveness of the experiment, in addition to the control of the viability of the parasites (cells without drug treatment), from the blank of the culture medium (medium without cells), in duplicate. The cells were incubated for 72 h at 37 °C with 5% of CO2. […] The colorimetric reaction was read at 570 nm and optical densities (OD) for each experimental condition were registered. […] The half inhibitory concentration (IC50) was calculated by the Probit method using the % of inhibition for each concentration. […]

Leishmania braziliensis = assay: In vitro experiments on Leishmania braziliensis; conditions: mean ± SD

COc1cccc2c1C(=O)c1c(O)c3c(c(O)c1C2=O)C[C@@](O)(C(=O)CO)C[C@@H]3O[C@H]1C[C@H](N)[C@H](O)[C@H](C)O1 [Doxorrubicin, Doxorubicin]
CC50 (in vitro; mean ± SD): 3.91 ± 0.4 µM

O=C(Cn1ccnc1[N+](=O)[O-])NCc1ccccc1 [Benznidazole]
IC50 (T. cruzi amastigote): 16.6 ± 4 µM
CC50 (in vitro): > 200 µg/mL

C[C@@H]1[C@H](O)[C@@H](C)/C=C/C=C/C=C/C=C/C=C/C=C/C=C/[C@H](O[C@@H]2O[C@H](C)[C@@H](O)[C@H](N)[C@@H]2O)C[C@@H]2O[C@](O)(C[C@@H](O)C[C@@H](O)[C@H](O)CC[C@@H](O)C[C@@H](O)CC(=O)O[C@H]1C)C[C@H](O)[C@H]2C(=O)O [Amphotericin B]
CC50 (in vitro; mean ± SD): 49.8 ± 6.82 µM
IC50 (Leishmania braziliensis): 0.3 ± 0.07 µM
